Assay results from US9943522B2, “Use of cathepsin K inhibition for the treatment and/or prophylaxis of pulmonary hypertension and/or heart failure” (BAYER INTELLECTUAL PROPERTY GMBH, priority 2011, dated 2018).

Legend:
LTBP2 = assay: Relative expression of LTBP2 in heart right ventricle, hypoxia-induced pulmonary hypertension model (TaqMan RT-PCR); type: in vivo, guinea pig; settings: hypoxia 28 days, Odanacatib infusion, compared to placebo group; FIG. 3
Protocol: (§1) To analyse the disease state of the animals and determine the efficacy of Odanacatib treatment, the expression of marker genes were performed. […] Due to the known correlation of increased ANP levels and disease stage in heart failure patients and animal models, the increased expression of […] seems to be correlated with pulmonary hypertension.
(§2) Guinea pig or dog tissues were pulverized by grinding with liquid nitrogen. Total RNA was extracted, DNase I digestion was performed to remove residual genomic DNA and the RNA were reverse transcribed using random hexomer primers. Quantitative TaqMan RT-PCR analysis was performed using the Applied Biosystems PRISM 7900 sequence detection system. […] Results were normalized to L32 (dog) or b-actin (guinea pig) controls, and relative expression was calculated according to the following formula: relative expression=2(20-(CT(probe)-CT(L32/b-actin))). […]
For relative quantitation of the mRNA distribution of LTBP2, total RNA from each sample was first reverse transcribed. […]
For relative quantitation of the distribution of LTBP2 mRNA the Applied Bioscience ABI 7900HT Sequence Detection system was used according to the manufacturer's specifications and protocols.
PCR reactions were set up to quantitate LTBP2 and the housekeeping gene b-actin. […]

CTSK = assay: Relative expression of CTSK in heart right ventricle, hypoxia-induced pulmonary hypertension model (TaqMan RT-PCR); type: in vivo, guinea pig; settings: hypoxia 28 days, Odanacatib infusion, compared to placebo group; FIG. 4
Protocol: as §1, §2
(§3) Male Dunkin Hartley guinea pigs weighing approximately 250 g were randomized to three different treatment groups (n=7-8 animals/group; control+placebo, hypoxia+placebo, hypoxia+Odanacatib). […] The heart was dissected, and the ratio of the right ventricle to left ventricle plus septum weight (RV/LV+S) was calculated as an index of right ventricular hypertrophy. The right ventricle was snap-frozen on dry ice for RNA extraction and quantitative real-time polymerase chain reaction. […]

[1] = tested on: hypoxia-induced pulmonary hypertension in the guinea pig; assay: Hypoxia-induced pulmonary hypertension in the guinea pig: right ventricular hypertrophy (RV/LV+S); type: in vivo
Description: Chronic hypoxia is a literature described and accepted animal model for pulmonary hypertension and is described for different species (Am J Physiol Lung Cell Mol Physiol 297: L1013-L1032, 2009; J Pharmacol Sci 107, 8-14 (2008); Pharmacology & Therapeutics 92 (2001) 1-20). Acute hypoxia increases pulmonary arterial pressure through pulmonary arterial constriction. Chronic hypoxia causes more severe pulmonary hypertension through vascular architectural changes and an increase of hematocrit (Hct) in the blood. […]
The CTSK inhibitor Odanacatib was tested in a guinea pig model for pulmonary hypertension as described in the examples section. […] The heart was dissected, and the ratio of the right ventricle to left ventricle plus septum weight (RV/LV+S) was calculated as an index of right ventricular hypertrophy. The right ventricle was snap-frozen on dry ice for RNA extraction and quantitative real-time polymerase chain reaction. […]
as §3, with “hypertrophy.” for “hypertrophy. The right ventricle was snap-frozen on dry ice for RNA extraction and quantitative real-time polymerase chain reaction.”

ANP = assay: Relative expression of ANP in heart right ventricle, hypoxia-induced pulmonary hypertension model (TaqMan RT-PCR); type: in vivo, guinea pig; settings: hypoxia 28 days, Odanacatib infusion, compared to placebo group; FIG. 2
Protocol: as §1, §2, §3

Compound: CC(C)(F)C[C@H](N[C@@H](c1ccc(-c2ccc(S(C)(=O)=O)cc2)cc1)C(F)(F)F)C(=O)NC1(C#N)CC1 [Odanacatib]
- expression of LTBP2 in heart (right ventricle) under hypoxia (LTBP2): markedly decreased expression
- expression of CTSK in heart (right ventricle) under hypoxia (CTSK): markedly decreased expression
- ratio of the right ventricle to left ventricle plus septum weight (RV/LV+S) ([1]; Mean±SEM, normobaric hypoxia (10% O2) 28 days, continuous infusion by osmotic minipump day 0-28, hypoxic placebo 0.37±0.01, normoxic control 0.28±0.01): 0.30±0.01
- right ventricle weight ([1]; hypoxia-induced pulmonary hypertension animals, compared to placebo treated animals): reduction of right ventricle weight
- expression of ANP in heart (right ventricle) under hypoxia (ANP): markedly decreased expression
